Assay results published in patent US20140018361A1, “IRAK INHIBITORS AND USES THEREOF” (Nimbus Iris, Inc., priority 2012, published 2014).
Where a name gives a salt, the structure may show the parent alone.

These compounds were tested against T1, IRAK4 (Homo sapiens, UniProt Q9NWZ3) (assay: IRAK-4 activity inhibition assay (Caliper)). Conditions: 3.5 nM IRAK4, 1.5 μM Peptide 8, 37 μM ATP, 28° C., 40 minutes.
T1 construct: purchased CARNA Bioscience 09-145
T1 sequence (Q9NWZ3 1-460): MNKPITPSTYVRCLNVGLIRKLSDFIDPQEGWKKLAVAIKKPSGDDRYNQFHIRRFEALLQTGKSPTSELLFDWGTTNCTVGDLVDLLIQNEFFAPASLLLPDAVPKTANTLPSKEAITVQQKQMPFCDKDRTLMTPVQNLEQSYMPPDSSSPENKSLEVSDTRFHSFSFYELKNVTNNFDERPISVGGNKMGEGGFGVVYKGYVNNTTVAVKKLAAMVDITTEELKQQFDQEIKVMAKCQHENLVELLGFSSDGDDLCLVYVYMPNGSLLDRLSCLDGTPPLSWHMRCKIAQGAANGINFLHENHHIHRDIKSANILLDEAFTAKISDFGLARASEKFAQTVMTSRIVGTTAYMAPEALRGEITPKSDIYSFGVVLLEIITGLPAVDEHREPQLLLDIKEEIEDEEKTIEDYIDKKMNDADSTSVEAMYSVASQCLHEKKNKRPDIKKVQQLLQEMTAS
Type: biochemical
Description: A 1× kinase base buffer was prepared from 50 mM HEPES, pH 7.5 and 0.0015% Brij-35. A stop buffer was prepared from 100 mM HEPES, pH 7.5, 0.015% Brij-35, 0.2% Coating Reagent #3, and 50 mM EDTA.
Test compound was diluted to 50× of the final desired highest inhibitor concentration in reaction by 100% DMSO. 100 ul of this compound dilution was transferred to a well in a 96-well plate.
Test compound was serially diluted by transferring 30 μl to 60 μl of 100% DMSO in the next well and so forth for a total of 10 concentrations. 100 μl of 100% DMSO was added to two empty wells for no compound control and no enzyme control in the same 96-well plate.
A new 96-well plate was marked as intermediate plate. 5 μl of compound serial dilution was transferred from source plate to the corresponding wells of the intermediate plate. 45 μl of 1× kinase base buffer (KB buffer) was added to each well of the intermediate plate. The intermediate plate was placed for 10 min on a shaker.
5 μl of each well was transferred from the 96-well intermediate plate to a 384-well plate in duplicates. For example, A1 of the 96-well plate is transferred to A1 and A2 of the 384-well plate. A2 of the 96-well plate is transferred to A3 and A4 of the 384-well plate, and so on.
IRAK4 and DTT in 1× kinase base buffer was added. The 2.5× enzyme mix contained 8.8 nM IRAK4 and 5 mM DTT.
Peptide 8, ATP, MgCl2 and MnCl2 were added in the 1× kinase base buffer. The 2.5× peptide mix contained 3.75 μM peptide 8, 92.5 μM ATP, 12.5 mM MgCl2 and 2.5 mM MnCl2.
Assay plate already contained 5 μl of compound in 10% DMSO. Added 10 μl of 2.5× enzyme solution to each well of the 384-well assay plate, except no enzyme control wells. The final concentration of IRAK4 in reaction was 3.5 nM. Added 10 μl of 1× kinase base buffer to no enzyme control wells in the assay plate. Incubated at room temperature for 10 min.
Added 10 μl of 2.5× peptide solution to each well of the 384-well assay plate. The final concentration of Peptide 8 and ATP was 1.5 μM and 37 μM, respectively. Incubated at 28° C. for 40 minutes. Added 25 μl of stop buffer to stop reaction. Collected data on Caliper.
Copied conversion % data from Caliper program. Converted conversion % values to percent inhibition values. Percent inhibition=(max−conversion %)/(max−min)*100, where “max” means the conversion % of DMSO control and “min” means the conversion % of no enzyme control.

Row | Compound | IC50
1 | CN(C)[C@H]1CC[C@H](Nc2nc(Nc3ccccc3)nc3[nH]ccc23)CC1 [Compound I-2, 4-N-[4-(dimethylamino)cyclohexyl]-2-N-phenyl-7H-pyrrolo[2,3-d]pyrimidine-2,4-diamine] | 100 to 1000 nM
2 | CN(C)[C@H]1CC[C@H](Nc2ncnc3oc4c(c23)CCC4)CC1 [Compound I-10, N,N-dimethyl-4-N-[7-oxa-9,11-diazatricyclo[6.4.0.0[2,6]]dodeca-1(12),2(6),8,10-tetraen-12-yl]-trans-cyclohexane-1,4-diamine] | 1000 to 10000 nM
3 | CN(C)[C@H]1CC[C@H](Nc2nc(N)nc3[nH]ccc23)CC1 [Compound I-8, 4-N-[4-(dimethylamino)cyclohexyl]-7H-pyrrolo[2,3-d]pyrimidine-2,4-diamine] | ≥ 10000 nM
4 | CN(C)[C@H]1CC[C@H](Nc2ncnc3[nH]cc(F)c23)CC1 [Compound I-3, (trans)-N^1-(5-fluoro-7H-pyrrolo[2,3-d]pyrimidin-4-yl)-N^4,N^4-dimethylcyclohexane-1,4-diamine] | 100 to 1000 nM
5 | N[C@H]1CC[C@H](Nc2ncnc3oc4c(c23)CCC4)CC1 [Compound I-11, N^1-(6,7-dihydro-5H-cyclopenta[4,5]furo[2,3-d]pyrimidin-4-yl)-trans-cyclohexane-1,4-diamine] | ≥ 10000 nM
6 | CN(C)[C@H]1CC[C@H](Nc2ncnc3occc23)CC1 [Compound I-12, N^1-(furo[2,3-d]pyrimidin-4-yl)-trans-N^4,N^4-dimethylcyclohexane-1,4-diamine formate] | ≥ 10000 nM

The remaining lines, values ahead:

Row | IC50 | Compound
7 | 100 to 1000 nM | CN(C)[C@H]1CC[C@H](Nc2ncnc3[nH]cc(C#N)c23)CC1 [Compound I-1, 4-[[4-(dimethylamino)cyclohexyl]amino]-7H-pyrrolo[2,3-d]pyrimidine-5-carbonitrile]
8 | ≥ 10000 nM | c1nc(O[C@H]2CC[C@H](N3CCOCC3)CC2)c2ccoc2n1 [Compound I-13, 4-(((trans)-4-morpholinocyclohexyl)oxy)furo[2,3-d]pyrimidine]
9 | 1000 to 10000 nM | CN(C)[C@H]1CC[C@H](Oc2ncnc3[nH]cc(F)c23)CC1 [Compound I-4, (trans)-4-((5-fluoro-7H-pyrrolo[2,3-d]pyrimidin-4-yl)oxy)-N,N-dimethylcyclohexanamine]
10 | 1000 to 10000 nM | CN(C)[C@H]1CC[C@H](Oc2ncnc3[nH]cc(C#N)c23)CC1 [Compound I-5, 4-[[4-(dimethylamino)cyclohexyl]oxy]-7H-pyrrolo[2,3-d]pyrimidine-5-carbonitrile]
11 | 1000 to 10000 nM | Fc1c[nH]c2ncnc(O[C@H]3CC[C@H](N4CCOCC4)CC3)c12 [Compound I-6, 4-((trans)-4-((5-fluoro-7H-pyrrolo[2,3-d]pyrimidin-4-yl)oxy)cyclohexyl)morpholine]
12 | 1000 to 10000 nM | N#Cc1c[nH]c2ncnc(O[C@H]3CC[C@H](N4CCOCC4)CC3)c12 [Compound I-7, 4-(trans-(4-morpholinocyclohexyl)oxy)-7H-pyrrolo[2,3-d]pyrimidine-5-carbonitrile]
13 | ≥ 10000 nM | CN(C)[C@H]1CC[C@H](Oc2ncnc3occc23)CC1 [Compound I-14, trans-4-(furo[2,3-d]pyrimidin-4-yloxy)-N,N-dimethylcyclohexanamine formate]
